Experiments:
[1] = test system: mice with induction of colitis; conditions: oral administration; cited from earlier work
[2] = biological target: T1, Pin1 (Homo sapiens, UniProt Q13526); test: Cell-based Pin1 inhibition assay with AMPK phosphorylation level as index (293T cells); parameters: key: +++: a higher level of AMPK phosphorylation is promoted, as compared with C1; ++: a similar level of AMPK phosphorylation is promoted, as compared with C1; +: a lower level of AMPK phosphorylation is promoted, as compared with C1; −: no or almost no promotion is found in AMPK phosphorylation; conditions: compound at 100 μM for 30 minutes, then 10 mM 2-DG for one hour, pAMPK blot compared with C1
T1 construct: endogenous in cells; host or cells: 293T cells
Protocol: To evaluate the inhibitory activity of each compound synthesized in Example 1 against the function of Pin1, a cell-based assay was performed according to the method previously developed by the inventors (Yusuke Nakatsu et al., Journal of Biological Chemistry, 2015, Vol. 290, No. 40, pp. 24255-24266), in which the phosphorylation level of AMPK (AMP-activated protein kinase), a protein whose phosphorylation is inhibited by Pin1, was examined as an index.
Briefly, 293T cells were plated on a collagen-coated 24-well plate. Forty-eight hours later, each compound synthesized in the preceding example (at 100 μM) was added to the plate, and the plate was left to stand in an incubator for 30 minutes. Subsequently, 10 mM 2-DG was added to the plate, and one hour later, each sample was collected with a buffer containing mercaptoethanol and SDS.
SDS-PAGE and blotting were performed, and blocking was then performed with 3% BSA for 1 hour, according to conventional protocols. Subsequently, a pAMPK antibody (Cell Signaling; diluted 1:2000 in Can Get Signal Solution 1, Toyobo) as a primary antibody, and an HRP-linked anti rabbit IgG (GE Healthcare; diluted 1:4000 in Can Get Signal Solution 2, Toyobo) as a secondary antibody were allowed to react at ambient temperature for 1 hour prior to detection.
The inhibitory activity against the function of Pin1 was evaluated by comparing the inhibition levels between each compound and a known Pin1 inhibitor, C1, as indicated below: […]

[3] = test system: non-alcoholic steatohepatitis (NASH) model mice (HFDT); test: NASH treatment study in HFDT-fed NASH model mice; conditions: for increase in liver weight / blood ALT (GPT) value, index of liver inflammation: HFDT NASH mice, 8 weeks; for increase in liver weight: FIG. 1 (A); for blood ALT (GPT) value, index of liver inflammation: FIG. 1 (B)
Protocol: Animal experiments were performed using non-alcoholic steatohepatitis (NASH) model mice to test the compounds according to the present invention for the therapeutic effect on NASH.
NASH model mice (hereinafter referred to as “NASH mice”) were produced by feeding a high-fat diet containing trans fatty acids (HFDT) to individual male laboratory mice (C57BL/6J) for 8 weeks. […] In addition, a normal diet was given to individual male laboratory mice (C57BL/6J) for 8 weeks to prepare control mice.

[4] = test system: DU145 cells; test: Cancer treatment study, DU145 tumors implanted in nude mice; assay type: in vivo, nude mice (BALB/c-slc-nu/nu mice); conditions: intraperitoneal 2.5 mg/kg/day, 5 times a week, 9 weeks, compared to control mice; for tumor size growth, first tumor (tumor volume ratio): FIG. 4 (A); for tumor size growth, second tumor (volume): FIG. 4 (B)
Protocol: An animal experiment was performed using mice transplanted with cancer cells to test the therapeutic effects of the compounds according to the present invention on cancer.
A first tumor (DU145 cells) with Matrigel plug was implanted in the middle of the upper back of nude mice (BALB/c-slc-nu/nu mice).
Five weeks after the first implantation, a second tumor (DU145 cells) was implanted in the middle of the left and right sides of the back of the nude mice.
No compound was administered to a group of mice to prepare control mice.
The volume of the second tumor was so small and not measurable at the beginning of administration of each compound. Therefore, the result from the second tumor is expressed in volume (mm^3), but not in ratio.

[5] = test system: NASH mice (methionine-choline-deficient diet); test: NASH treatment study in MCDD-fed NASH mice, liver sections with Azan staining; assay type: in vivo, mice (C57BL/6J); conditions: NASH mice given a MCDD, 8 weeks; intraperitoneal 2.5 mg/kg/day three times a week; FIG. 3 (C)
Protocol: Next, an animal experiment was performed on NASH mice that were produced by feeding a methionine-choline-deficient diet (MCDD).

[6] = test system: colon cancer model mice; test: Colon cancer model mice (AOM/DSS) treatment study; assay type: in vivo; conditions: oral 1.25 mg/kg/day three times a week from Day 6, dissected on Day 89, versus control
Protocol: Colon cancer model mice were produced by intraperitoneal administration of azoxymethane (AOM) at a dose of 12 mg/kg to laboratory mice on Day 1, and then starting a course consisting of 5-day oral administration of 3% sodium dextran sulfate (DSS) and 16-day no DSS administration, on Day 6, and repeating the course 4 times, to induce colon inflammation and subsequent cancer development.
On Day 89, the colon cancer model mice were dissected to count the number of developed colon cancer tissues and to measure tumor area occupied by a single colon cancer tissue (total tumor area/tumor tissue number).

[7] = intraperitoneal 2.5 mg/kg/day or oral 5.0 mg/kg/day, three times a week

T1 sequence (Q13526 whole entry): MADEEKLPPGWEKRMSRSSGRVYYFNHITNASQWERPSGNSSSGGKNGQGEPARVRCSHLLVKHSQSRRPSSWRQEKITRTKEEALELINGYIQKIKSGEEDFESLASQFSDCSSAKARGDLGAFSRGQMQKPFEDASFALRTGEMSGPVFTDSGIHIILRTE

| Structure (SMILES) | Pin1 inhibition activity [2] | also measured |
| --- | --- | --- |
| COc1ccc(-c2cc(C(=O)N[C@H](Cc3ccc4ccccc4c3)C(=O)O)c(C)o2)cc1 [Compound C1, (R)-2-(5-(4-methoxyphenyl)-2-methylfuran-3-carboxamido)-3-(naphthalene-6-yl)propanoic acid] |  | colitis development [1]: prevention of colitis development |
| COC(=O)c1ccc2cc(C(=O)N[C@H](Cc3ccc4ccccc4c3)C(=O)O)ccc2c1 [Compound H-62] | + |  |
| O=C(N[C@H](Cc1ccc2ccccc2c1)C(=O)O)OCc1ccccc1 [Compound H-65, reference compound] | − |  |
| O=C(O)[C@@H](Cc1ccc2ccccc2c1)NC(=O)C1(O)c2ccccc2-c2ccccc21 [Compound H-101] | ++ |  |
| O=C(N[C@H](Cc1ccc2ccccc2c1)C(=O)OCc1ccccc1)C1c2ccccc2-c2ccccc21 [Compound H-105] | − |  |
| COC(=O)[C@@H](Cc1ccc2ccccc2c1)NC(=O)n1c2ccccc2c2ccccc21 [Compound H-144] |  | increase in liver weight [3, 7]: significantly reduced; blood ALT (GPT) value, index of liver inflammation [3, 7]: decreased; tumor size growth, first tumor (tumor volume ratio) [4]: suppressed; tumor size growth, second tumor (volume) [4]: suppressed |
| O=C(O)[C@@H](Cc1ccc2ccccc2c1)NC(=O)N(c1ccccc1)c1ccccc1 [Compound H-161] | ++ |  |
| O=C(O)[C@@H](Cc1ccc2ccccc2c1)NC(=O)N1c2ccccc2C=Cc2ccccc21 [Compound H-164] | + |  |
| O=C(O)[C@@H](Cc1ccc2ccccc2c1)NC(=O)N1c2ccccc2CCc2ccccc21 [Compound H-178] | +++ |  |
| O=C(Nc1ccccc1Oc1ccccc1)N[C@H](Cc1ccc2ccccc2c1)C(=O)O [Compound H-334] | +++ |  |
| O=C(Nc1ccc(C(=O)c2ccccc2)cc1)N[C@H](Cc1ccc2ccccc2c1)C(=O)O [Compound H-341] | ++ |  |
| O=C1C=CC(=O)c2c(O)cccc21 [Juglone, reference compound] |  | increase in liver weight ([3]; oral 5.0 mg/kg/day three times a week): significantly reduced; colitis development [1]: prevention of colitis development |

Second part, led by results:

| Pin1 inhibition activity [2] | Structure (SMILES) | also measured |
| --- | --- | --- |
| +++ | O=C(CC1c2ccccc2-c2ccccc21)N[C@H](Cc1ccc2ccccc2c1)C(=O)O [Compound H-103] |  |
| +++ | O=C(N[C@H](Cc1ccc2ccccc2c1)C(=O)O)C1c2ccccc2-c2ccccc21 [Compound H-109] |  |
| ++ | O=C(Cc1ccc2ccccc2c1)N[C@H](Cc1ccc2ccccc2c1)C(=O)O [Compound H-158] |  |
| ++ | O=C(O)[C@@H](Cc1ccc2ccccc2c1)NC(=O)N1c2ccccc2Oc2ccccc21 [Compound H-162] |  |
| ++ | O=C(O)[C@@H](Cc1ccc2ccccc2c1)NC(=O)n1c2ccccc2c2ccccc21 [Compound H-163] | fat accumulation in liver tissue (microscopic observation) [5]: significantly reduced fat accumulation; hepatic fibrosis (Azan staining) [5]: significantly inhibited; increase in liver weight [3, 7]: significantly reduced; blood ALT (GPT) value, index of liver inflammation [3, 7]: decreased; fat accumulation in liver tissue (microscopic observation) ([3]; NASH mice given a HFDT, FIG. 2 (C)): significantly reduced fat accumulation; tumor size growth, first tumor (tumor volume ratio) [4]: suppressed; tumor size growth, second tumor (volume) [4]: suppressed; number of colon cancer tissues [6]: no significant difference; tumor area occupied by a single colon cancer tissue ([6]; FIG. 5): reduction in tumor area |
| + | COC(=O)[C@@H](Cc1ccc2ccccc2c1)NC(=O)Cn1c2ccccc2c2ccccc21 [Compound H-521] |  |
| + | O=C(Cn1c2ccccc2c2ccccc21)N[C@H](Cc1ccc2ccccc2c1)C(=O)O [Compound H-536] |  |
